Laboratory results published in patent US11185511B2, “Antifungal topical composition and methods of treatment” (priority 2013, dated 2021).
Entries after “also recorded” stand apart in the source; their conditions may differ. Read-outs that look alike come from different tables or passages of the source.

Key:
[1] = system: Saccharomyces cerevisiae NOD 24; assay: Chequerboard titration test (MIC, FICI) against Saccharomyces cerevisiae NOD 24; format: cell-based; conditions: for Fold reduction in MIC of drug when combined with PHMB: S cerevisiae NOD 24, FIG. 2; for MIC when combined with PHMB: S cerevisiae NOD 24, MIC of the antifungal in combination with PHMB; for FICI / Type of interaction: S cerevisiae NOD 24, antifungal combined with PHMB; for MIC: Saccharomyces cerevisiae, NOD24
Method: (§1) In vitro susceptibility of a clinical isolate of Candida albicans, Saccharomyces cerevisiae NOD 24 and S cerevisiae EBY 100 to the combination of the antifungal agent and PHMB was assessed using chequerboard assay. Interaction between the drugs and PHMB, formation of nanoparticles and cellular uptake was also assessed.
(§2) Yeast inoculum was prepared by picking five colonies from 24 hrs grown culture in SGA and mixing in RPMI 1640 with MOPS. The optical density of the mixture was adjusted spectrophotometrically to 1 which is equivalent to 3×10^7 Colony Forming Units of yeast/mi. This suspension was further diluted in RPMI 1640 with MOPS to give final inoculum size of 0.5×10^4 CFU/ml.
(§3) Chequer board titration test was carried out in sterile 96-well plates as per CLSI recommended standard procedure to test the antifungal effect of drugs alone and in combination with PHMB. RPMI 1640 medium buffered with MOPS was used as test medium. Dilutions of drug was prepared the test medium if the stock was made in DMSO and in case of stocks made in water further dilutions of drug was in water itself. Tested concentrations were: nystatin 0.000039 mg/ml to 0.02 mg/ml, amphotericin B 0.032 mg/ml to 0.0000625 mg/ml, berberine 0.01 mg/ml to 0.00002 mg/ml, ketoconazole 0.032 mg/ml to 0.0000625 mg/ml and terbinafine 0.16 mg/ml to 0.00031 mg/ml. Growth control and sterility control was present in all plates. All the plates were prepared in triplicates.
(§4) The plates were sealed with paraffin foil to prevent evaporation and kept at 37° C. for C albicans and 30° C. for S cererevisiae. MIC was recorded visually, aided with Powerwave 340 universal microplate spectrophotometer (Biotek) after 24 hours for C albicans and S cerevisiae NOD 24. […] MIC was defined as the lowest concentration at which there is no visible growth. FICI was used to analyse the drug interactions in vitro and was calculated using the equation given below: […]

[2] = system: Saccharomyces cerevisiae EBY 100; assay: Chequerboard titration test (MIC, FICI) against Saccharomyces cerevisiae EBY 100; format: cell-based; conditions: for Fold reduction in MIC of drug when combined with PHMB: S cerevisiae EBY100, FIG. 1; for MIC when combined with PHMB: S cerevisiae EBY 100, MIC of the antifungal in combination with PHMB; for FICI / Type of interaction: S cerevisiae EBY 100, antifungal combined with PHMB; for MIC: Saccharomyces cerevisiae
Method: as §1, §2, §3, §4

[3] = system: Candida albicans; assay: Chequerboard titration test (MIC, FICI) against clinical isolate of Candida albicans; format: cell-based; conditions: for Fold reduction in MIC of drug when combined with PHMB: FIG. 3; for MIC when combined with PHMB: MIC of the antifungal in combination with PHMB; for FICI / Type of interaction: antifungal combined with PHMB
Method: as §1, §2, §3, §4

[4] = system: Candida albicans, Saccharomyces cerevisiae NOD 24 and S cerevisiae EBY 100; conditions: chequerboard assay, organism not specified
Method: as §1, §3, §4
Wilcoxon signed rank test was used to statistically analyse changes in MICs of antifungals when combined with PHMB. P value less than 0.05 was considered significant. Statistical analysis was done using SPPSS version 2.0 software.

[5] = Particle size by dynamic light scattering (DLS); format: physicochemical; conditions: for Average size of particles (DLS): combined with PHMB in the ratio 1:3, PBS
Method: Dynamic light scattering (DLS) was used to estimate size of complexes formed. It is based on the principle that by measuring scattered light from particles in motion their size can be determined. […] Particle size was determined using Zetasizer S (Malvern instruments, UK).

[6] = S cerevisiae NOD 24, PHMB concentration when combined with the labelled drug
[7] = S cerevisiae NOD 24, RPMI 1640 with MOPS, 30° C., 24 hours
[8] = S cerevisiae EBY 100, PHMB concentration when combined with the labelled drug
[9] = S cerevisiae EBY 100, RPMI 1640 with MOPS, 30° C., 48 hours
[10] = PHMB concentration when combined with the labelled drug
[11] = RPMI 1640 with MOPS, 37° C., 24 hours
[12] = combined with PHMB in the ratio 1:3
[13] = S cerevisiae NOD 24, PHMB concentration when combined with the labelled drug, read-out: MIC of PHMB with antifungals
[14] = S cerevisiae NOD 24, RPMI 1640 with MOPS, 30° C., 24 hours, read-out: MIC of antifungals alone
[15] = EBY100, S cerevisiae EBY 100, RPMI 1640 with MOPS, 30° C., 48 hours, read-out: MIC of antifungals alone
[16] = PHMB concentration when combined with the labelled drug, read-out: MIC of PHMB with antifungals
[17] = RPMI 1640 with MOPS, 37° C., 24 hours, read-out: MIC of antifungals alone

SMILES	Fold reduction in MIC of drug when combined with PHMB [1] [fold]	MIC when combined with PHMB ([1]; 30° C., 24 hours) [µg/mL]	MIC of PHMB with antifungals [1, 6] [µg/mL]	MIC of antifungals alone [1, 7] [µg/mL]	FICI [1]	Type of interaction [1]	Fold reduction in MIC of drug when combined with PHMB [2] [fold]	MIC when combined with PHMB ([2]; 30° C., 48 hours) [µg/mL]	MIC of PHMB with antifungals [2, 8] [µg/mL]	FICI [2]	Type of interaction [2]	Fold reduction in MIC of drug when combined with PHMB [3] [fold]	MIC when combined with PHMB ([3]; 37° C., 24 hours) [µg/mL]	FICI [3]	Type of interaction [3]	Interaction with PHMB (synergy), in words [4]	Nanoparticles with PHMB observed or not (DLS) [5, 12]	MIC [1, 13] [µg/mL]	MIC [1, 14] [µg/mL]	MIC [3, 16] [µg/mL]	further results
C[C@@H]1[C@H](O)[C@@H](C)/C=C/C=C/C=C/C=C/C=C/C=C/C=C/[C@H](O[C@@H]2O[C@H](C)[C@@H](O)[C@H](N)[C@@H]2O)C[C@@H]2O[C@](O)(C[C@@H](O)C[C@@H](O)[C@H](O)CC[C@@H](O)C[C@@H](O)CC(=O)O[C@H]1C)C[C@H](O)[C@H]2C(=O)O [Amphotericin B]	16	0.25	0.5	4	0.56	No interaction (>0.5 but ≤4 is ‘no interaction’)	4	4	0.5	0.5	Synergistic (FICI≤0.5 is ‘synergistic effect’)	2	0.5	0.53	No interaction (>0.5 but ≤4 is ‘no interaction’)	Synergistic effect	Nanoparticles were not detected				MIC of antifungals alone [2, 9]: 16 µg/mL; Type of interaction ([2]; listed as amphotericin B): synergy; MIC of PHMB with antifungals [3, 10]: 0.031 µg/mL; MIC of antifungals alone [3, 11]: 1 µg/mL
COc1ccc2cc3[n+](cc2c1OC)CCc1cc2c(cc1-3)OCO2 [Berberine]	16	0.56			0.56	No interaction (>0.5 but ≤4 is ‘no interaction’)	2	25		0.75	No interaction (>0.5 but ≤4 is ‘no interaction’)	2	31.25	0.53	No interaction (>0.5 but ≤4 is ‘no interaction’)		Nanoparticles were observed	0.5	50	0.031	MIC ([2]; EBY100, S cerevisiae EBY 100, PHMB concentration when combined with the labelled drug, read-out: MIC of PHMB with antifungals): 0.5 µg/mL; MIC [2, 15]: 50 µg/mL; Share of particles around 22.2±1.5 nm ([5]; combined with PHMB 1:3): 64.5%; Average size of particles (DLS) [5]: 22.22±1.591 nm; Average size of particles (DLS) ([5]; listed as berberine): around 22.2±1.5 nm
CC(=O)N1CCN(c2ccc(OCC3COC(Cn4ccnc4)(c4ccc(Cl)cc4Cl)O3)cc2)CC1 (stereo not shown) [Ketoconazole]	4	1			0.5	Synergistic (FICI≤0.5 is ‘synergistic effect’)	4	0.31		0.263	Synergistic (FICI≤0.5 is ‘synergistic effect’)	4	1	0.281	Synergistic (FICI≤0.5 is ‘synergistic effect’)	Strong synergism; also recorded: Synergistic effect	Nanoparticles were observed	0.5	16	0.062	MIC ([2]; EBY100, 48 h, read-out: MIC of antifungals alone): 1.25 µg/mL; MIC [3, 17]: 4 µg/mL; Polydispersity index ([5]; combined with PHMB 1:3): > 1; Share of particles of size less than 10 nm ([5]; combined with PHMB 1:3): less than 10%; Peak 1 Average size (DLS) [5, 12]: 1.15±0.017; Peak 2 Average size (DLS) [5, 12]: 5.88±0.71; Peak 3 Average size (DLS) [5, 12]: 498.9±65.2
C[C@@H]1[C@H](O)[C@@H](C)/C=C/C=C/CC/C=C/C=C/C=C/C=C/C(O[C@H]2O[C@H](C)[C@@H](O)[C@H](N)[C@@H]2O)CC2O[C@](O)(CC(O)C(O)CCC(O)CC(O)CC(O)CC(=O)O[C@H]1C)CC(O)C2C(=O)O (stereo partly shown) [Nystatin]	4	0.625	0.5	2.5	0.75	No interaction (>0.5 but ≤4 is ‘no interaction’)	2	2.5	0.062	0.53	No interaction (>0.5 but ≤4 is ‘no interaction’)	2	2.5	1	No interaction (>0.5 but ≤4 is ‘no interaction’)		Nanoparticles were not detected				MIC of antifungals alone [2, 9]: 5 µg/mL; MIC of PHMB with antifungals [3, 10]: 0.5 µg/mL; MIC of antifungals alone [3, 11]: 5 µg/mL
CN(C/C=C/C#CC(C)(C)C)Cc1cccc2ccccc12 [Terbinafine]	16	2.5			0.312	Synergistic (FICI≤0.5 is ‘synergistic effect’)	8	2.5		0.14	Synergistic (FICI≤0.5 is ‘synergistic effect’)	4	1	0.5	Synergistic (FICI≤0.5 is ‘synergistic effect’)	Strong synergism; also recorded: Synergistic effect		0.062	4	0.5	MIC [2, 15]: 20 µg/mL; MIC [3, 17]: 4 µg/mL
